# Data from patent EP4671261A1, “NOVEL PEPTIDE EXHIBITING SKIN CONDITION IMPROVEMENT ACTIVITY AND COSMETIC COMPOSITION CONTAINING SAME” (Daebong LS Co., Ltd., priority 2023, dated 2024).
# Where a SMILES comes first, the peptide text is derived from it.
# What was measured:
# HaCaT cells = experiment: Hyaluronic acid (HA) production, ELISA of culture supernatant; type: cell-based, human; conditions: 10 mM (positive control), untreated group = 100
# Experimental: The HaCaT human keratinocyte cell line was obtained from Cell Line Service GmbH (Germany). The cells were cultured in DMEM containing 1% penicillin-streptomycin and 10% fetal bovine serum (FBS) at 37°C in a 5% CO2 incubator, and subculture was performed every 2 to 3 days.
# HaCaT cells were seeded at 1.0 × 10^5 cells/well in a 24-well plate and incubated for 24 hours at 37°C in a 5% CO2 incubator. After incubation, the culture medium was replaced with serum-free DMEM, and the peptide prepared in the above Example was applied at concentrations of 50-200 µM, followed by incubation for 24 hours. The supernatant from each experimental group was collected, and the amount of hyaluronic acid (HA) released into the medium was measured. The positive control group was treated with N-acetylglucosamine at a concentration of 10 mM. Measurement of hyaluronic acid production was conducted using a Hyaluronic Acid ELISA Kit (Cusabio Biotechnology Co., Ltd.) following the manufacturer's protocol.
# [1] = EZ-cytox cell viability assay in macrophages; type: cell-based; conditions: mouse, RAW264.7 macrophage cells, LPS (1µg/ml)
# Experimental: (§1) RAW264.7 macrophage cells were obtained from the American Type Culture Collection (ATCC) and cultured in Dulbecco's Modified Eagle's Medium (DMEM) containing 100 units/mL penicillin-streptomycin and 10% (v/v) fetal bovine serum (FBS) at 37°C in a 5% CO2 incubator, and subculture was performed every 2 to 3 days.
# (§2) The EZ-cytox assay is a representative method for measuring cell viability using the principle that water-soluble tetrazolium salts (WSTs) react with dehydrogenases of viable cells to produce a water-soluble orange formazan.
# (§3) To evaluate cytotoxicity, RAW264.7 cells were seeded at 1.5 × 10^4 cells/well in a 96-well plate using DMEM supplemented with 10% FBS and incubated for 18 hours at 37°C in a 5% CO2 incubator. The test samples were then applied to the cultured cells. After treatment, EZ-cytox was added to each well and incubated for 30 minutes under the same conditions. Absorbance was measured at 450 nm using a microplate reader. The mean absorbance values of each sample group were compared with the control group to determine cell viability.
# NHDF cells = experiment: Procollagen Type I Peptide (PIP) production, EIA of culture supernatant; type: cell-based, Human; conditions: 10 µg/mL (positive control), untreated group = 100
# Experimental: Normal Human Dermal Fibroblasts (NHDF) were obtained from Lonza (Lonza Walkersville, Inc.) and cultured in FBM (Fibroblast Basal Medium) supplemented with 0.1% hFGF-B, insulin, GA-1000, and 2% FBS at 37°C in a 5% CO2 incubator. Subculture was performed every 2 to 3 days.
# NHDF cells were seeded at 2.0 × 10^4 cells/well in a 24-well plate and incubated for 24 hours at 37°C in a 5% CO2 incubator. After incubation, the culture medium was replaced with serum-free FBM, and the peptide prepared in the above Example was applied at concentrations of 1-100 µM, followed by incubation for 24 hours. The supernatant from each experimental group was collected, and the amount of procollagen released into the medium was measured. The positive control group was treated with ascorbic acid at a concentration of 0.001 v/v%. Measurement of procollagen levels was performed using a Procollagen Type I Peptide (PIP) EIA Kit (Takara Biomedical Co.) according to the manufacturer's protocol. The quantitative results of procollagen type I peptide production following treatment with the peptide of the Example are shown in Table 3 and Fig. 4.
# RAW264.7 cells [2] = experiment: EZ-cytox cell viability assay in macrophages; type: cell-based; conditions: 10 µM (positive control), LPS (1µg/ml)
# Experimental: as §1, §2, §3
# RAW264.7 cells [3] = experiment: Inhibition of nitric oxide (NO) production, Griess reagent, LPS-stimulated macrophages; type: cell-based; conditions: 10 µM (positive control), LPS (1µg/ml), relative to LPS control = 100
# Experimental: as §1
# RAW264.7 cells were seeded at 1.5 × 10^5 cells/well in a 24-well plate and incubated for 18 hours at 37°C in a 5% CO2 incubator. The cells were then treated with the peptide prepared in the above Example at concentrations of 50-200 µM and incubated for 24 hours. From each experimental group, 100 µL of the supernatant was collected into a 96-well plate, and 100 µL of griess reagent was added. The mixture was allowed to react at room temperature for 10 minutes, and absorbance was measured at 540 nm using a microplate reader. […] The relative levels of NO production following the treatments described in the above Example, based on NO production induced by the stimulant (LPS), are shown in Table 1 and Figure 2 below.
smiles,measurement,setting,value
"CC(=O)N[C@H]1C(O)O[C@H](CO)[C@@H](O)[C@@H]1O (stereo partly shown) [NAG, N-acetylglucosamine]",Hyaluronic acid production (%),HaCaT cells,121.43±10.37%
"N[C@@H](Cc1ccc(O)cc1)C(=O)NCC(=O)N[C@@H](CO)C(=O)N[C@@H](CC(=O)O)C(=O)O [Example, YGSD (Tyr-Gly-Ser-Asp)] (H-YGSD-OH)",viability at 50 µM,[1]; 50 µM,98.1 ± 1.81%
same,viability at 100 µM,[1]; 100 µM,99.4 ± 2.02%
same,viability at 200 µM,[1]; 200 µM,99.53 ± 0.95%
"O=C1O[C@H]([C@@H](O)CO)C(O)=C1O [Asc.A, ascorbic acid]",Procollagen production (%),NHDF cells,175.82±3.91%
"Cc1ccnc(N)c1 [Example 2-AM, 2-amino-4-methylpyridine]",Cell viability (%),RAW264.7 cells [2],94.12±1.76%
same,NO Production (%),RAW264.7 cells [3],10.23±0.55%
